# Legend:
# [1] = test system: PC-3 prostate cancer cells; test: Cytotoxicity assay, sensitization to TNF (CellTiter-Glo); type: cell-based, human; parameters: key to TNF EC50: IN: EC50 too weak to be determined; conditions: PC-3 cells, 10 nM TNF, 24 h, cell viability; for EC50: read-out: TNF EC50
# Description: (§1) Cellular cytotoxicity experiments were conducted in white 96-well flat bottom plates (Greiner Bio-One #655074). PC-3 prostate cancer cells were seeded into microtiter wells in 90 μL RPMI medium with 10% fetal calf serum and antibiotics at 5,000 cells per well, and then incubated overnight at 37°C with 5% CO2/95% air. The next day, compounds diluted into the same culture medium and added in 10 μL aliquots to achieve various final concentrations, maintaining a uniform total volume per well. Either TNF (at 10 nM final) or LT-α (at ~90 pM final) resuspended in 10 μL of RPMI with 10% fetal calf serum and antibiotics was added to wells or an equal volume of medium was applied for the control well. The plates were then further incubated for 24 h. Subsequently, cell viability was assessed by the addition of 25 μL per well of Cell-Titer-Glo reagent (Promega, Inc). Plates were read using a Luminoskan Ascent luminometer.
# (§2) The cellular activity of cIAP1 and cIAP2 inhibitors was evaluated through experiments where cytotoxicity of a human prostate tumor cell line (PC-3) was assessed in the presence or absence of cytokines TNF and LT-α. The experimental approach we used was to provide TNF or LT-α at a fixed concentration, which by itself was non-cytotoxic, then titrate SMAC mimetics into the cell cultures. […] The compound series described in this work has been tested against a broad range of cell lines (data not shown and [23]) and single agent toxicity was only observed for SKOV3 ovarian tumor cells. This agrees with the findings of Varfolomeev, Vince and Lalaoui, respectively.
# [2] = test system: PC-3 prostate cancer cells; test: Cytotoxicity assay, sensitization to LT-α (CellTiter-Glo); type: cell-based, human; parameters: key to LT-α EC50: IN: EC50 too weak to be determined; conditions: PC-3 cells, ~90 pM LT-α, 24 h, cell viability; for EC50: read-out: LT-α EC50
# Description: as §1, §2
# [3] = biological target: cIAP1-BIR3 (Homo sapiens, UniProt Q13490); test: FP competition assay, displacement of SMAC-rhodamine; conditions: cIAP1 BIR3 Ki, 25 mM Hepes pH 7.5, 1 mM TCEP, 0.005% Tween 20, 20 nM SMAC-rhodamine, 40 mM β-glycerol phosphate, ~50 nM protein; Ki calculated from IC50
# Description: Solutions for assessing SMAC-rhodamine binding to various BIR domains were empirically optimized. […] For cIAP1-BIR3, the assay buffer was 25 mM Hepes [pH 7.5] containing 40 mM β-glycerol phosphate, 1 mM TCEP, and 0.005% Tween 20, typically with 20 nM SMAC-rhodamine. For cIAP1-BIR2, cIAP2-BIR2 and cIAP2-BIR3, assays were performed in 25 mM Hepes [pH 7.5] containing 1 mM TCEP and 0.005% Tween 20, typically with 20 nM SMAC-rhodamine.
# For cIAP1-BIR2, assays were conducted using 25 mM Hepes [pH 7.5] containing 1 mM TCEP, 0.005% Tween 20, ~1 μM cIAP1-BIR2, and 20 nM SMAC-rhodamine. For cIAP1-BIR3, assays were performed using the same buffered solution, except 40 mM β-glycerol phosphate was added and the cIAP1-BIR3 concentration was reduced to 50 nM. For cIAP2-BIR2, assays included a buffer containing 25 mM Hepes [pH 7.5] containing 1 mM TCEP, 0.005% Tween 20, 1 μM cIAP2-BIR2, and 20 nM SMAC-rhodamine. […] IC50 values were determined with a nonlinear fit using Prism software. Ki values were determined from the IC50 values using an online program developed by Nikolovska-Coleska et al. [26].
# [4] = biological target: T1, myc-RIP1 binding to GST-cIAP1-BIR3 (Homo sapiens, UniProt Q13490); test: RIP1 binding, GST pull-down from HEK293T lysates; conditions: various concentrations, overnight, 4°C
# T1 construct: purified GST-fusion proteins (GST-cIAP1-BIR3 or GST-cIAP2-BIR3) were added; made in house; host or cells: GST fusion: bacteria (as for the other recombinant proteins); myc-RIP1: transfected HEK293T cell lysate
# Description: (§3) To assess the impact of compounds on cIAP1 and cIAP2 binding to RIP1, 700,000 HEK293T cells were seeded into 100 mm cell-culture plates and transfected the next day with 6 μg of plasmid DNA, myc-RIP1 in pRK5 vector. […] Lysates from 6 plates were pooled and divided into equal 300 μL aliquots, into which 7 μg of purified GST-fusion proteins (GST-cIAP1-BIR3 or GST-cIAP2-BIR3) were added in the presence of various concentrations of SMAC mimetic compounds. The tubes were rocked overnight at 4°C, and the next day 20 μL of glutathione-Sepharose beads (GE Healthcare) was added to each tube and the tubes were rocked for an additional 2 h at 4°C. The GST-fusion proteins were recovered by centrifugation at 2,300 g for 30 sec, then washed 3-times in NP-40 lysis buffer. Finally, 20 μL of 2X Laemmli buffer was added and the samples were boiled, then fractionated by SDS-PAGE, followed by immunoblotting using anti-myc antibody (Roche) for detection of myc-RIP1 and anti-GST antibody (BD Biosciences, La Jolla, CA) for detection of GST-fusion proteins.
# [5] = biological target: T2, myc-RIP1 binding to GST-cIAP2-BIR3 (Homo sapiens, UniProt Q13489); test: RIP1 binding, GST pull-down from HEK293T lysates; conditions: various concentrations, overnight, 4°C
# T2 construct: purified GST-fusion proteins (GST-cIAP1-BIR3 or GST-cIAP2-BIR3) were added; made in house; host or cells: GST fusion: bacteria (as for the other recombinant proteins); myc-RIP1: transfected HEK293T cell lysate
# Description: as §3
# [6] = biological target: T3, cIAP1 protein in MDA-MB-231 cells (Homo sapiens, UniProt Q13490); test: Immunoblotting of cIAP1 protein levels in cells; type: cell-based; conditions: 5 μM, 6 h, immunoblot
# T3 construct: MDA-MB-231 cells contain abundant levels of cIAP1 protein but little cIAP2 protein; endogenous in cells; host or cells: MDA-MB-231
# Description: To assess the impact of compounds on cIAP1 protein levels in cells, 40,000 MDA-MB-231 cells were cultured in complete medium (RPMI with 10% fetal calf serum and antibiotics) overnight at 37°C in 5% CO2/95% air. The following day compounds at 5 μM (or an equivalent volume of diluent control) were added. After 6 h, cells were recovered by centrifugation, lysed in SDS-sample buffer, and equivolume aliquots of lysates were analyzed by SDS-PAGE/Immunoblotting using antibodies specific for human/mouse cIAP (pan) Mab (clone 315301; R&D Systems #MAB3400) and β-actin (Sigma-Aldrich #A5441) by an enhanced chemiluminescence (ECL) method, essentially as described.
# T1 sequence (Q13490 257-356 limits assumed): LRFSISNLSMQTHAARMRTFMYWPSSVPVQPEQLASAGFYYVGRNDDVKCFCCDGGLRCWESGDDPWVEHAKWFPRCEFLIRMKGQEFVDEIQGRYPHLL
# Sequence of cIAP1-BIR3 (Q13490 257-356): as the sequence (Q13490 257-356 limits assumed) above
# T2 sequence (Q13489 243-333 limits assumed): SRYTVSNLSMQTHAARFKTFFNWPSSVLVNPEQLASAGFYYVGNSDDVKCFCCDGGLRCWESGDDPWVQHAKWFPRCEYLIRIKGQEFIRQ
# T3 sequence (Q13490 whole entry): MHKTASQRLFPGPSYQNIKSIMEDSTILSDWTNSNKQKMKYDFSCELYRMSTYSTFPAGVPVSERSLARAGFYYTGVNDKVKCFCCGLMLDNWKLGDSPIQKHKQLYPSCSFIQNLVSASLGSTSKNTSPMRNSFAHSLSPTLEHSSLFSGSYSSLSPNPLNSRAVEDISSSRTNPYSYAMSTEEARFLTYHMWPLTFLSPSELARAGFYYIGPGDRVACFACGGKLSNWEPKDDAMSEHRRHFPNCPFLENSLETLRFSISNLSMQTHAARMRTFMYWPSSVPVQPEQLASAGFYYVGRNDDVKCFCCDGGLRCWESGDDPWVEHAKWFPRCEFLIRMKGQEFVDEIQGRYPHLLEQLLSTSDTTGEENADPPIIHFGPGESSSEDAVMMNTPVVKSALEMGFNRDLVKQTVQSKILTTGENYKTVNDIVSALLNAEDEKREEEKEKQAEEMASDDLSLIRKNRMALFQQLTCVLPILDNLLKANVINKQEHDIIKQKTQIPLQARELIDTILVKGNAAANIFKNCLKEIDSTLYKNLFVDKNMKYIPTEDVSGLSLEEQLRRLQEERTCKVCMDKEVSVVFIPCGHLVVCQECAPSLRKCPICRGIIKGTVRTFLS
Compound,EC50 [1] [nM],EC50 [2] [nM],Ki [3] [nM],inhibition of myc-RIP1 binding to GST-cIAP1-BIR3 [4],inhibition of myc-RIP1 binding to GST-cIAP2-BIR3 [5],effect on cIAP1 protein levels in cells [6],TNF EC50 [1],LT-α EC50 [2]
"CN[C@@H](C)C(=O)N[C@H](C(=O)N1CCC[C@@H]1C(=O)N[C@H]1CCOc2ccccc21)C(C)C [compound 37, reference compound]",30,10,20,inhibited binding,inhibited binding,,,
"CN[C@@H](C)C(=O)N[C@H](C(=O)N1CSC[C@@H]1C(=O)NC1CCCc2ccccc21)C(C)C (some centres unmarked) [compound 38, reference compound]",60,20,30,inhibited binding,inhibited binding,caused reductions of cIAP1 protein levels in cells,,
"CN[C@@H](C)C(=O)N[C@@H](C(=O)N1CCC[C@@H]1C(=O)NNc1cccc(F)c1)C1CCCCC1 [compound 40, reference compound]",,,> 92400,did not,did not,did not,IN^b,IN^b

# Source: paper PMC5019375, “Characterization of Potent SMAC Mimetics that Sensitize Cancer Cells to TNF Family-Induced Apoptosis” (PLoS ONE, 2016)
